# Legend:
# CD8^+ T cells = experiment: Proliferation of CD8+ T cells (Ki67+ staining, flow cytometry) in tumor cell suspensions incubated with IL-15; type: cell-based, human
# Experimental: (§1) Tumoral (Tu) and non-tumoral tissue (NTu) were obtained from 82 NSCLC patients undergoing neoadjuvant surgery. The characteristics of NSCLC patients are depicted in Table 2. Tissue samples obtained at the day of surgery were chopped into small pieces and incubated with agitation in RMPI 1640 medium (Gibco) with 100 ng/ml DNAse I and 20 ng/ml Collagenase D (both from Roche) for 45 minutes at 37° C. The cell suspension was then passed through the 100 μm strainer into 50 ml falcon tubes to obtain single cell suspensions. The infiltrated immune cell populations were analyzed by flow cytometry immediately after staining with specific antibodies for 30 min at 4° C. as described below. For further stimulation lymphocytes were counted and seeded into 96-well plates at the concentration of 1×10^6 lymphocytes/nil in RPMI-1640 medium supplemented with 10% heat-inactivated fetal bovine serum (PAA), 2 mM GlutaMAX I CTS (Gibco) and 100 U/ml penicillin+[…] streptomycin (Gibco). Cells were stimulated with 50 ng/ml PMA and 10 ng/ml ionomycin (both from Sigma-Aldrich) for 1 h at 37° C. before Brefeldin A (BioLegend, 1000×) was added for 3 h to detect intracellular IFN-γ in CD8^+ and CD4^+ T cells. In some experiments recombinant IL-15 (Peprotech, 13 ng/ml) was added to the cell culture and the proliferating CD8^+ T cells and NK cells were detected by flow cytometry after 3 and 7 days of incubation at 37° C. Cell viability was detected by DAPI (Thermo Fisher Scientific) or by LIVE/DEAD® Fixable Aqua Dead Cell Stain Kit 405 nm excitation (Invitrogen).
# (§2) Cells were stained extracellularly with the mixture of appropriate antibody in PBS for 30 min at 4° C. For intracellular staining of IFN-γ, Foxp3, CD3 and Ki-67 the cells were fixed for 30 min using Fixation Buffer (eBioscience), permeabilized with Permeabilization Buffer (eBioscience) and stained intracellularly for 30 min at 4° C. Cells were washed with PBS and analyzed by LSRFortessa (BD Biosciences). Data were analyzed with FlowJo software (Tree Star). Flow cytometry data may be expressed as mean fluorescent intensity (MFI).
# (§3) As PMA and ionomycin represent strong unspecific stimulation of immune cells, IL-15 was used to activate predominantly NK cells and CD8^+ T cells, playing a major role in antitumor immunity. Tumor cell suspensions were incubated alone or with IL-15 for 7 days. The proliferation of CD8^+ T cells and NK cells was analyzed on Day 0, 3 and 7 by Ki67^+ staining followed by flow cytometry. Whereas 68% and 79% of T cells and NK cells, respectively, proliferated on Day 3 of incubation in AC tumors, only 23% and 8% of T cells and NK cells, respectively, proliferated in SCC tumors, confirming a higher immunosuppressive environment in SCC than AC tumors (see Table 6).
# NK cells (CD3^−CD56^+) = experiment: Proliferation of NK cells (Ki67+ staining, flow cytometry) in tumor cell suspensions incubated with IL-15; type: cell-based, human
# Experimental: as §1, §2, §3
# [1] = AC tumor cell suspension, Day 3, +IL-15
# [2] = AC tumor cell suspension, Day 7, +IL-15
# [3] = SCC tumor cell suspension, Day 3, +IL-15
# [4] = SCC tumor cell suspension, Day 7, +IL-15
substance,measurement,setting,value
"IL-15: recombinant IL-15 (Peprotech, 13 ng/ml) added to cell culture to activate predominantly NK cells and CD8+ T cells",Ki67^+ cells from CD8^+ T cells,CD8^+ T cells; [1],68%
same,Ki67^+ cells from CD8^+ T cells,CD8^+ T cells; [2],62%
same,Ki67^+ cells from CD8^+ T cells,CD8^+ T cells; [3],23%
same,Ki67^+ cells from CD8^+ T cells,CD8^+ T cells; [4],45%
same,Ki67^+ cells from CD3^−CD56^+ T cells (NK cells),NK cells (CD3^−CD56^+); [1],79%
same,Ki67^+ cells from CD3^−CD56^+ T cells (NK cells),NK cells (CD3^−CD56^+); [2],50%
same,Ki67^+ cells from CD3^−CD56^+ T cells (NK cells),NK cells (CD3^−CD56^+); [3],8%
same,Ki67^+ cells from CD3^−CD56^+ T cells (NK cells),NK cells (CD3^−CD56^+); [4],40%

# From US20210252120A1, “IMMUNOTHERAPY FOR CANCER” (SOTIO A.S., priority 2016, published 2021)
